Laboratory results reported in ChEMBL document CHEMBL3885881, “DrugMatrix”.

Organism: Rattus norvegicus
Test: DrugMatrix - Regimen: Daily Repeat
Assay type: toxicity, organism-based, Sprague-Dawley
Design: regimen Daily Repeat, gender Male, age 6-8 weeks
Conditions: in vivo, iv, vehicle 100 % SALINE; for ABSOLUTE BASOPHIL / ABSOLUTE EOSINOPHIL / ABSOLUTE LYMPHOCYTE / ABSOLUTE MONOCYTE / ABSOLUTE SEGMENTED NEUTROPHIL / BASOPHIL / EOSINOPHIL / ERYTHROCYTE COUNT / HEMATOCRIT / HEMOGLOBIN / LEUKOCYTE COUNT / LYMPHOCYTE / MEAN CORPUSCULAR HEMOGLOBIN / MEAN CORPUSCULAR HEMOGLOBIN CONCENTRATION / MEAN CORPUSCULAR VOLUME / MONOCYTE / NEUTROPHIL / NUCLEATED RED BLOOD CELLS / PLATELET COUNT: tissue Blood; for ALANINE AMINOTRANSFERASE / ALBUMIN / ALKALINE PHOSPHATASE / ASPARTATE AMINOTRANSFERASE / BLOOD UREA NITROGEN / CARBON DIOXIDE / CHLORIDE / CHOLESTEROL / CREATINE PHOSPHOKINASE / CREATININE / GLUCOSE / LACTATE DEHYDROGENASE / LIPASE / PHOSPHORUS / POTASSIUM / SODIUM / TOTAL BILIRUBIN / TOTAL PROTEIN / URIC ACID: tissue Plasma
[1] = 0 mg/kg, 72 h, dose level Control, time 3 day
[2] = 0 mg/kg, 120 h, dose level Control, time 5 day
[3] = 12 mg/kg, 72 h, dose level High, time 3 day

Cc1c(N)nc([C@H](CC(N)=O)NC[C@H](N)C(N)=O)nc1C(=O)N[C@H](C(=O)N[C@H](C)[C@@H](O)[C@H](C)C(=O)N[C@H](C(=O)NCCc1nc(-c2nc(C(=O)NCCC[S+](C)C)cs2)cs1)[C@@H](C)O)[C@@H](O[C@@H]1O[C@@H](CO)[C@@H](O)[C@H](O)[C@@H]1O[C@H]1O[C@H](CO)[C@@H](O)[C@H](OC(N)=O)[C@@H]1O)c1c[nH]cn1.[Br-] [BLEOMYCIN A2]
ABSOLUTE BASOPHIL [1]: 0 CELLS/uL
ABSOLUTE EOSINOPHIL [1]: 33.67 CELLS/uL
ABSOLUTE LYMPHOCYTE [1]: 12123.5 CELLS/uL
ABSOLUTE MONOCYTE [1]: 243.5 CELLS/uL
ABSOLUTE SEGMENTED NEUTROPHIL [1]: 1282.67 CELLS/uL
BASOPHIL [1]: 0%
EOSINOPHIL [1]: 0.33%
ERYTHROCYTE COUNT [1]: 5.18 x10E6/uL
HEMATOCRIT [1]: 32.63%
HEMOGLOBIN [1]: 12.87 G/DL
LEUKOCYTE COUNT [1]: 13.68 x10E3/uL
LYMPHOCYTE [1]: 88.67%
MEAN CORPUSCULAR HEMOGLOBIN [1]: 24.98 pg
MEAN CORPUSCULAR HEMOGLOBIN CONCENTRATION [1]: 39.48 G/DL
MEAN CORPUSCULAR VOLUME [1]: 63.23 fL
MONOCYTE [1]: 1.83%
NEUTROPHIL [1]: 9.17%
NUCLEATED RED BLOOD CELLS [1]: 0.17 /100WBC
PLATELET COUNT [1]: 1114.5 x10E3/uL
ALANINE AMINOTRANSFERASE [1]: 46.17 u/L
ALBUMIN [1]: 4.15 G/DL
ALKALINE PHOSPHATASE [1]: 374.67 u/L
ASPARTATE AMINOTRANSFERASE [1]: 89.33 u/L
BLOOD UREA NITROGEN [1]: 14.83 mg/dL
CARBON DIOXIDE [1]: 25.67 mmol/L
CHLORIDE [1]: 101.17 MEQ/L
CHOLESTEROL [1]: 63.5 mg/dL
CREATINE PHOSPHOKINASE [1]: 494.67 u/L
CREATININE [1]: 0.17 mg/dL
GLUCOSE [1]: 163 mg/dL
LACTATE DEHYDROGENASE [1]: 269.33 u/L
LIPASE [1]: 10.67 u/L
PHOSPHORUS [1]: 11.27 mg/dL
POTASSIUM [1]: 5.85 MEQ/L
SODIUM [1]: 141.68 MEQ/L
TOTAL BILIRUBIN [1]: 0.18 mg/dL
TOTAL PROTEIN [1]: 5.87 G/DL
URIC ACID [1]: 1.28 mg/dL
ABSOLUTE BASOPHIL [2]: 0 CELLS/uL
ABSOLUTE EOSINOPHIL [2]: 24.67 CELLS/uL
ABSOLUTE LYMPHOCYTE [2]: 11832.83 CELLS/uL
ABSOLUTE MONOCYTE [2]: 279.67 CELLS/uL
ABSOLUTE SEGMENTED NEUTROPHIL [2]: 1446.17 CELLS/uL
BASOPHIL [2]: 0%
EOSINOPHIL [2]: 0.17%
ERYTHROCYTE COUNT [2]: 5.61 x10E6/uL
HEMATOCRIT [2]: 35.02%
HEMOGLOBIN [2]: 13.82 G/DL
LEUKOCYTE COUNT [2]: 13.58 x10E3/uL
LYMPHOCYTE [2]: 87.67%
MEAN CORPUSCULAR HEMOGLOBIN [2]: 24.68 pg
MEAN CORPUSCULAR HEMOGLOBIN CONCENTRATION [2]: 39.5 G/DL
MEAN CORPUSCULAR VOLUME [2]: 62.42 fL
MONOCYTE [2]: 2%
NEUTROPHIL [2]: 10.17%
NUCLEATED RED BLOOD CELLS [2]: 0 /100WBC
PLATELET COUNT [2]: 1178.17 x10E3/uL
ALANINE AMINOTRANSFERASE [2]: 52.83 u/L
ALBUMIN [2]: 4.12 G/DL
ALKALINE PHOSPHATASE [2]: 370 u/L
ASPARTATE AMINOTRANSFERASE [2]: 100.5 u/L
BLOOD UREA NITROGEN [2]: 15.17 mg/dL
CARBON DIOXIDE [2]: 28.83 mmol/L
CHLORIDE [2]: 101 MEQ/L
CHOLESTEROL [2]: 69.5 mg/dL
CREATINE PHOSPHOKINASE [2]: 488.67 u/L
CREATININE [2]: 0.23 mg/dL
GLUCOSE [2]: 165 mg/dL
LACTATE DEHYDROGENASE [2]: 502.17 u/L
LIPASE [2]: 11 u/L
PHOSPHORUS [2]: 11.7 mg/dL
POTASSIUM [2]: 5.85 MEQ/L
SODIUM [2]: 142.45 MEQ/L
TOTAL BILIRUBIN [2]: 0.18 mg/dL
TOTAL PROTEIN [2]: 5.85 G/DL
URIC ACID [2]: 1.43 mg/dL
ABSOLUTE BASOPHIL [3]: 0 CELLS/uL
ABSOLUTE EOSINOPHIL [3]: 0 CELLS/uL
ABSOLUTE LYMPHOCYTE [3]: 10537 CELLS/uL
ABSOLUTE MONOCYTE [3]: 346.67 CELLS/uL
ABSOLUTE SEGMENTED NEUTROPHIL [3]: 2083 CELLS/uL
BASOPHIL [3]: 0%
EOSINOPHIL [3]: 0%
ERYTHROCYTE COUNT [3]: 6.18 x10E6/uL
HEMATOCRIT [3]: 38.57%
HEMOGLOBIN [3]: 15.13 G/DL
LEUKOCYTE COUNT [3]: 12.97 x10E3/uL
LYMPHOCYTE [3]: 81.67%
MEAN CORPUSCULAR HEMOGLOBIN [3]: 24.5 pg
MEAN CORPUSCULAR HEMOGLOBIN CONCENTRATION [3]: 39.23 G/DL
MEAN CORPUSCULAR VOLUME [3]: 62.37 fL
MONOCYTE [3]: 2.67%
NEUTROPHIL [3]: 15.67%
NUCLEATED RED BLOOD CELLS [3]: 0 /100WBC
PLATELET COUNT [3]: 1055.67 x10E3/uL
ALANINE AMINOTRANSFERASE [3]: 38 u/L
ALBUMIN [3]: 3.8 G/DL
ALKALINE PHOSPHATASE [3]: 233.67 u/L
ASPARTATE AMINOTRANSFERASE [3]: 110 u/L
BLOOD UREA NITROGEN [3]: 10.33 mg/dL
CARBON DIOXIDE [3]: 27.67 mmol/L
CHLORIDE [3]: 100.33 MEQ/L
CHOLESTEROL [3]: 56.33 mg/dL
CREATINE PHOSPHOKINASE [3]: 923.67 u/L
CREATININE [3]: 0.12 mg/dL
GLUCOSE [3]: 136.67 mg/dL
LACTATE DEHYDROGENASE [3]: 439.67 u/L
LIPASE [3]: 9.67 u/L
PHOSPHORUS [3]: 10.5 mg/dL
POTASSIUM [3]: 5.86 MEQ/L
SODIUM [3]: 140.77 MEQ/L
TOTAL BILIRUBIN [3]: 0.13 mg/dL
TOTAL PROTEIN [3]: 5.47 G/DL
URIC ACID [3]: 1.3 mg/dL
